In BigSolDB 2.1:

NC(=O)c1ccncc1
solubility (mole fraction)
Conditions	278.15 K	283.15 K	288.15 K	293.15 K	298.15 K	303.15 K	308.15 K	313.15 K	318.15 K	323.15 K
in isopropanol	–	–	–	–	–	0.034	0.0381	0.0465	0.0559	0.0669
in isopropyl acetate	0.00204	0.00217	0.0025	0.00283	0.00328	0.00397	0.00505	0.00616	0.00734	0.00871
in methanol	0.0336	0.0392	0.0439	0.0515	0.0602	0.0678	0.0773	0.0911	0.103	0.122
in methyl acetate	0.00372	0.00431	0.00542	0.00668	0.00826	0.00969	0.0127	0.0152	0.0184	0.0218
in n-butanol	0.0172	0.0189	0.022	0.0248	0.0284	0.0319	0.0359	0.041	0.0482	0.0565
in n-pentanol	0.0126	0.0136	0.0152	0.0177	0.0204	0.0234	0.0279	0.033	0.039	0.046
in n-propanol	0.0218	0.0242	0.0275	0.0324	0.0374	0.0418	0.0455	0.0541	0.0639	0.0764
in n-propyl acetate	0.00198	0.00249	0.00323	0.00404	0.00494	0.00615	0.0072	0.00832	0.00937	0.0109
